# From patent US10626107B2, “Crystal form, salt type of substituted 2-hydro-pyrazole derivative and preparation method therefor” (CHIA TAI TIANQING PHARMACEUTICAL GROUP CO., LTD., priority 2016, dated 2020)
# Columns and labels:
# [1] = Study on the hygroscopicity (dynamic vapor sorption); format: physicochemical; conditions: 25° C. and 80% RH
# Experimental: Model of instrument: SMSDVS Advantage dynamic vapor sorption analyzer
# Test conditions: A sample (10 to 15 mg) was placed in a DVS sample pan for testing.
# DVS parameters: • Temperature: 25° C. • Balance: dm/dt=0.01%/min (minimum: 10 min, maximum: 180 min) • Drying: drying for 120 min at 0% RH • Test gradient of RH (%): 10% • Test gradient range of RH (%): 0%-90%-0%
# [2] = Study on the polymorphs of compound WX_1 (XRPD after treatment in solvents); format: physicochemical
# From the text: The solution was centrifuged to obtain a precipitate, which was dried and then subjected to an XRPD detection.
# [3] = Solubility tests in different vehicles (HPLC); format: physicochemical; conditions: 26 °C, thermodynamic from solid, room temperature 25 to 27° C.
# Experimental: Samples (about 2 mg) (if the sample was a salt, the required amount of the salt was calculated according to the salt factor in accordance with the criterion that the compound of formula (I) was 2 mg) were weighed respectively and added to a 1.5 mL glass vial. Different vehicles (1 mL) were then added respectively. The above-mentioned suspension was placed on a magnetic stirrer for stirring (room temperature 25 to 27° C.). After stirring for 24 hours, samples were taken. The samples were first centrifuged, and the supernatants were taken. After appropriate dilution according to the situation of the dissolution, the concentrations were determined by HPLC. The results were as follows:
# Notes: • FaSSIF: to simulate the intestinal fluid in the small intestine of human in a hunger state before meal; • FeSSIF: to simulate the intestinal fluid in the small intestine of human in a full state after meal; • SGF: to simulate the gastric juice in the empty stomach of human in a hunger state
# [4] = Solubility study at different pHs; format: physicochemical; conditions: 37° C.; for solubility at 4 h / solubility at 24 h: thermodynamic from solid; for Solubility 4 hrs / Solubility (24 hrs): LOQ = 0.0003 mg/mL
# Experimental: A magnet was added to the above suspension, which was placed on a magnetic stirrer for stirring (temperature 37° C., dark). After respectively stirring for 4 hours and 24 hours, samples were taken and centrifuged, and the residual solids in the lower layers were tested by XRPD. The samples in the upper layers were filtered with a filtration membrane. The concentrations of the filtrates were determined by HPLC and the pHs were measured. After the HPLC system was equilibrated with a mobile phase, the analysis of the samples started.
# [5] = tested on: MCF-7 breast cancer cells; assay: Inhibition assay of the A crystal form of WX_1 on MCF-7 breast cancer cell proliferation (CellTiter-Glo); format: cell-based; conditions: Homo sapiens, MCF7, 144 h; MCF-7 cells, 6 days
# Experimental: RPMI 1640 medium, fetal bovine serum and penicillin/streptomycin as antibiotics were purchased from Promega (Madison, Wis.). The MCF-7 cell line was purchased from the European Collection of Authenticated Cell Cultures (ECACC). Envision MultiLabel Plate Reader (PerkinElmer).
# MCF-7 cells were seeded in a black 384-well plate with 45 μL of cell suspension (containing 200 MCF-7 cells) per well. The cell plate was placed in a carbon dioxide incubator for overnight culture.
# The test compounds were diluted 3 times to the 10th concentration with Bravo, i.e., diluted from 10 μM to 0.508 nM, and a duplicate-well experiment was set. The medium was added to the middle plate in an amount of 49 μL per well. The gradient-diluted compounds were transferred in an amount of 1 μL per well to the middle plate according to the corresponding positions, and the mixture was mixed evenly and transferred to the cell plate in an amount of 5 μL per well. The cell plate was incubated in a carbon dioxide incubator for 6 days.
# Promega CellTiter-Glo reagent was added to the cell plate in an amount of […] per well, and incubated for 10 minutes at room temperature to stabilize the luminescence signal. Reading was performed using a PerkinElmer Envision Multilabel Plate Reader.
# [6] = tested on: human breast cancer MCF-7 subcutaneous xenograft tumor; format: in vivo; conditions: 18.75 mg/kg PO QD × 3W
# From the text: Cell line-derived xenograft (CDX) BALB/c nude mice that were female, 6- to 8-week old, weighed 20 g, and subcutaneously implanted with human tumor cell line derived from MCF-7 breast cancer patients were used. A total of 150 mice were needed, which were purchased from Beijing Vital River Laboratory Animal Technology Co., Ltd.
# BALB/c nude mice that were female, 6- to 8-week old, and weighed approximately 20 g were used. The mice were maintained in separate ventilated cages (10 mice per cage) in a special pathogen-free environment. All the cages, bedding and water were disinfected prior to use. All the animals were free to access a standard certified commercial laboratory diet. A total of 150 mice were purchased from Beijing Vital River Laboratory Animal Technology Co., Ltd. for research. Each mouse was implanted subcutaneously with an estrogen tablets (0.18 mg/tablet, 60-day sustained release) in the left back. After 3 days, each mouse was implanted with tumor cells (10×10^6 in 0.2 mL of phosphate buffer) subcutaneously in the right back for tumor growth. Administration was started when the average tumor volume reached about 150 to 200 mm^3. The test compounds were orally administered daily, and the administration dosages were as shown in the above table. The tumor volumes were measured twice a week using a two-dimensional caliper. The volumes were expressed in cubic millimeters and calculated by the following formula: V=0.5 a×b^2, wherein a and b were the long diameter and short diameter of a tumor, respectively. The anti-tumor efficacy was determined by dividing the average increase of the tumor volumes of the animals treated with a compound by the average increase of the tumor volumes of the animals without being treated with the compound.
# [7] = aqueous buffer, pH 3.8 buffer (pH 3.80)
# [8] = aqueous buffer, pH 4.5 buffer (pH 4.48)
# [9] = aqueous buffer, pH 5.5 buffer (pH 5.52)
# [10] = aqueous buffer, pH 6.0 buffer (pH 6.04)
# [11] = simulated gastric fluid, 0.01N HCl (pH 1.99)
# [12] = simulated gastric fluid, 0.1N HCl (pH 1.00)
smiles,measurement,setting,value
CC(C)c1c2cc(-c3nc(Nc4ccc(N5CCNCC5)cn4)ncc3F)ccc2nn1C.O=C(O)/C=C\C(=O)O [A crystal form of compound WX_1],hygroscopic weight gain,[1],1.48%
same,Crystal form,"[2]; acetone, 40° C. in the dark for 2 days",A crystal form
same,Crystal form,"[2]; acetone-water (1:2), Volatilization of supernatant",amorphous (Volatilization)
same,Crystal form,"[2]; ethanol, 40° C. in the dark for 2 days",A crystal form
same,Crystal form,"[2]; ethanol-water (3:1), Volatilization of supernatant",amorphous (Volatilization)
same,Crystal form,"[2]; ethyl acetate, 40° C. in the dark for 2 days",A crystal form
same,Crystal form,"[2]; isopropanol, 40° C. in the dark for 2 days",A crystal form
same,Crystal form,"[2]; isopropanol-water (1:1), Volatilization of supernatant",A crystal form
same,Crystal form,"[2]; methanol, 40° C. in the dark for 2 days",A crystal form
same,Crystal form,"[2]; methanol-water (3:1), 40° C. in the dark for 2 days",A crystal form
same,solubility at 24 h,"[3]; simulated gastric fluid, SGF, read-out: Solubility SGF",> 2 mg/mL
same,solubility at 24 h,"[3]; FaSSIF, read-out: Solubility FaSSIF",0.023 mg/mL
same,solubility at 24 h,"[3]; FeSSIF, read-out: Solubility FeSSIF",1.6 mg/mL
same,solubility at 24 h,"[3]; water, water, H2O, read-out: Solubility H2O",1.14 mg/mL
same,Description of Solubility,[4]; 0.01N HCl (pH 1.99),slightly soluble
same,Description of Solubility,[4]; 0.1N HCl (pH 1.00),slightly soluble
same,solubility at 4 h,[4]; [7],> 2.5 mg/mL
same,solubility at 24 h,[4]; [7],> 2.5 mg/mL
same,solubility at 4 h,[4]; [8],> 2.5 mg/mL
same,solubility at 24 h,[4]; [8],> 2.5 mg/mL
same,solubility at 4 h,[4]; [9],0.11 mg/mL
same,solubility at 24 h,[4]; [9],0.138 mg/mL
same,solubility at 4 h,[4]; [10],0.002 mg/mL
same,solubility at 24 h,[4]; [10],0.002 mg/mL
same,Description of Solubility,[4]; pH 3.8 buffer (pH 3.80),slightly soluble
same,Description of Solubility,[4]; pH 4.5 buffer (pH 4.48),slightly soluble
same,Description of Solubility,[4]; pH 5.5 buffer (pH 5.52),sparingly soluble
same,Description of Solubility,[4]; pH 6.0 buffer (pH 6.04),practically insoluble
same,Description of Solubility,[4]; pH 6.8 buffer (pH 6.80),practically insoluble
same,Solubility 4 hrs,[4]; pH 6.8 buffer (pH 6.80),<LOQ*
same,Solubility (24 hrs),[4]; pH 6.8 buffer (pH 6.80),<LOQ
same,Description of Solubility,[4]; pH 7.4 buffer (pH 7.39),practically insoluble
same,Solubility 4 hrs,[4]; pH 7.4 buffer (pH 7.39),<LOQ
same,Solubility (24 hrs),[4]; pH 7.4 buffer (pH 7.39),<LOQ
same,Description of Solubility,[4]; purified water (pH 6.05),slightly soluble
same,solubility at 4 h,[4]; [11],> 2.5 mg/mL
same,solubility at 24 h,[4]; [11],> 2.5 mg/mL
same,solubility at 4 h,[4]; [12],> 2.5 mg/mL
same,solubility at 24 h,[4]; [12],> 2.5 mg/mL
same,solubility at 4 h,[4]; purified water (pH 6.05),1.11 mg/mL
same,solubility at 24 h,[4]; purified water (pH 6.05),1.22 mg/mL
same,IC50,[5],0.07 µM
same,Tumor volume Day 0,[6]; Day 0,153 mm^3
same,Tumor volume Day 7,[6]; Day 7,156 mm^3
same,Tumor volume Day 14,[6]; Day 14,136 mm^3
same,Tumor volume Day 20,[6]; Day 20,98 mm^3
